The values below come from patent US6455074B1, “Methods for fabricating polymer-based controlled release devices” (Alkermes Controlled Therapeutics, Inc., priority 1997, dated 2002).

The test concerns estrous cycle of the rat. Description: Rat Estrous Cyclicity Model. It is filed as in vivo. Here is the method: The Rat Estrous Cyclicity Model is described in detail in Hahn et al., Biological Assays Utilized to Characterize LHRH and its Analogs. In: LHRH and its Analogs, Contraception and Therapeutic Applications (Eds. Vickery B H, Nestor J J, and Hafez ESE), pp. 49-60. MTP Press Ltd, Lancaster, England, 1984, the contents of which are incorporated herein by reference. The model is used to assess the pharnacodynamic effect which an effective serum level of azaline B (at least 2.0 ng/ml), provided by the administration of a sustained release device of the invention, has on the estrous cycle of the rat. When the minimum effective concentration of azaline B is present in serum, the estrus phase of the estrous cycle of the rat is suppressed and the rat remains in the diestrus phase of the estrous cycle.
Microparticles containing an effective amount of azaline B were prepared according to the “Particulate Method,” described above, and the methods of Examples 1 and 3. The presence of azaline B activity was measured as the percent of a test group which remained in the diestrus phase of the estrous cycle. Animals were subcutaneously injected with equal amounts of azaline B either encapsulated in a microparticle or unencapsulated. […] The results are depicted in FIGS. 1 and 2 which show a plot of the percent of animals per treatment group in diestrus for each formulation evaluated versus time.

For the substance “Ac-D-Nal′-D-Cpa^2-D-Pal^3-Ser^4-Aph^5(atz)-D-Aph^6(atz)-Leu^7-Ilys^8-Pro^9-D-Ala^10 [azaline B]”, the “effective serum level of azaline B (minimum effective concentration suppressing estrus phase)” value is listed as “at least 2.0 ng/ml”.
